Experiments:
[1] = tested on: human EGFR (HERc); experiment: Intercellular transactivation: HERc tyrosine phosphorylation in Rat-1/M1R + Rat-1/HERc co-culture; type: cell-based; settings: carbachol 1 mM; for effect on EGFR (HERc) tyrosine phosphorylation in response to M1R agonist carbachol: confluent co-cultures of Rat-1/M1R and Rat-1/HERc cells, preincubation, FIG. 2b, 2c
[2] = tested on: SHC; experiment: SHC tyrosine phosphorylation in Rat-1/EP-R cells; type: cell-based; settings: tyrphostin pretreatment (AG1478 250 nM, AG1295 1 μM), FIG. 1e
[3] = tested on: proHB-EGF; experiment: Flow cytometry of cell surface proHB-EGF in non-transfected COS-7 cells; type: cell-based; settings: within 10 minutes, FIG. 4c
[4] = tested on: EGFR; experiment: EGFR tyrosine phosphorylation in PC-3 prostate carcinoma cells; type: cell-based, human; settings: PC-3 cells starved for 36 hours; 3 minutes stimulation; FIG. 4f
[5] = tested on: proHB-EGF; type: cell-based

[O-][Cl+2]([O-])O [chlorate]
effect on EGFR (HERc) tyrosine phosphorylation in response to M1R agonist carbachol [1]: completely inhibited

COc1cc2ncnc(Nc3cccc(Cl)c3)c2cc1OC [AG1478]
effect on SHC tyrosine phosphorylation following thrombin stimulation [2]: completely blocked

lysophosphatidic acid [LPA]
content of cell surface proHB-EGF after addition of agonist [3]: reduced

CCCCCCCCCCCCCC(=O)O[C@@H]1[C@@H](C)[C@@]2(O)[C@@H](C=C(CO)C[C@]3(O)C(=O)C(C)=C[C@@H]23)[C@@H]2C(C)(C)[C@]12OC(C)=O [TPA, tetradecanoyl-phorbol-13-acetate]
content of cell surface proHB-EGF after addition of agonist [3]: reduced | induction of tyrosine phosphorylation of the EGFR by agonist [4]: induce tyrosine phosphorylation

EGF: epidermal growth factor, EGFR ligand used as control stimulus (NSDSECPLSHDGYCLHDGVCMYIEALDKYACNCVVGYIGERCQYRDLKWWELR; UniProt P01133 971-1023, looked up)
content of cell surface proHB-EGF after addition of agonist [3]: no effect | induction of tyrosine phosphorylation of the EGFR by agonist [4]: induce tyrosine phosphorylation

heparitinase
effect on EGFR (HERc) tyrosine phosphorylation in response to M1R agonist carbachol [1]: completely inhibited

Cc1cc2ncc(-c3ccccc3)nc2cc1C [AG1295]
effect on SHC tyrosine phosphorylation following thrombin stimulation [2]: remained unaffected

C[N+](C)(C)CCOC(N)=O [carbachol]
induction of tyrosine phosphorylation of HERc by agonist ([1]; Rat-1/M1R + Rat-1/HERc co-culture, FIG. 2a): rapidly induced tyrosine phosphorylation | proteolytic processing of membrane-anchored proHB-EGF upon agonist stimulation [5]: rapid breakdown

Reference: patent US7632645B1, “EGF receptor transactivation by G-protein-coupled receptors requires metalloproteinase cleavage of proHB-EGF” (Max-Planck-Gesellschaft zur forderung der Wissenschaften …, priority 1999, dated 2009)
